Among the data in ChEMBL document CHEMBL4265965, “Dichloroacetophenones targeting at pyruvate dehydrogenase kinase 1 with improved selectivity and antiproliferative activity: Synthesis and structure-activity relationships” (Bioorg Med Chem Lett, 2018) are inhibition values, retold here.

The structures appear in SMILES notation. Activity calls are given as the source filed them. No cut-off for these calls is given here.

What all share (format): functional
For assay [1], the system named is NCI-H1975. As to the kind of experiment: Antiproliferative activity against human NCI-H1975 cells assessed as inhibition of cell proliferation at 2 uM after 72 hrs by MTT assay relative to control. The note with it: for inhibition at 2 µM: NCI-H1975, 72 h. On the technique in general: Tetrazolium dyes change colour on reduction, which living cells bring about.
In assay [2] the test system is NCI-H1650. The experiment in a line: Antiproliferative activity against human NCI-H1650 cells assessed as inhibition of cell proliferation at 12 uM after 72 hrs by MTT assay relative to control. The settings on record: NCI-H1650, 72 h.
For assay [3], the system named is A549. The experiment in a line: Antiproliferative activity against human A549 cells assessed as inhibition of cell proliferation at 2 uM after 72 hrs by MTT assay relative to control. The settings on record: for inhibition at 2 µM: A549, 72 h.
Assay [4] deals with NCI-H1650. The experiment in a line: Antiproliferative activity against human NCI-H1650 cells assessed as inhibition of cell proliferation at 6 uM after 72 hrs by MTT assay relative to control. The settings on record: for inhibition at 6 µM: NCI-H1650, 72 h.
Assay [5] has as its system NCI-H1975. The experiment in a line: Antiproliferative activity against human NCI-H1975 cells assessed as inhibition of cell proliferation at 6 uM after 72 hrs by MTT assay relative to control. The settings on record: for inhibition at 6 µM: NCI-H1975, 72 h.
Assay [6] deals with NCI-H1650. As to the kind of experiment: Antiproliferative activity against human NCI-H1650 cells assessed as inhibition of cell proliferation at 2 uM after 72 hrs by MTT assay relative to control. The settings on record: for inhibition at 2 µM: NCI-H1650, 72 h.
Assay [7] concerns A549. As to the kind of experiment: Antiproliferative activity against human A549 cells assessed as inhibition of cell proliferation at 12 uM after 72 hrs by MTT assay relative to control. The settings on record: A549, 72 h.
For assay [8], the system named is A549. The experiment in a line: Antiproliferative activity against human A549 cells assessed as inhibition of cell proliferation at 6 uM after 72 hrs by MTT assay relative to control. The settings on record: for inhibition at 6 µM: A549, 72 h.
Assay [9] relates to NCI-H1975. As to the kind of experiment: Antiproliferative activity against human NCI-H1975 cells assessed as inhibition of cell proliferation at 12 uM after 72 hrs by MTT assay relative to control. The note with it: NCI-H1975, 72 h.

`O=C(c1ccc(Cl)c(C(F)(F)F)c1)C(Cl)Cl`: the inhibition (usually the drop in the measured response relative to a control, in per cent) at 2 µM in [1] amounted to 70.1%; in [3], 27.6%; in [6], 55.7%. The inhibition at 12 µM in assay [2] is 100%; in assay [7] it was 94.5%; in assay [9], 98.4%. Moreover, the inhibition at 6 µM came to 95.3% in [4], 97.6% in assay [5] and 79.5% in assay [8].
With `O=C(c1cccc([N+](=O)[O-])c1)C(Cl)Cl`, the inhibition at 2 µM in assay [1] worked out at 62.2%; in [3], 13.4%; in assay [6], 25.5%. The figures for the inhibition at 12 µM in assay [2], in assay [7] and in assay [9] were 99.9%, 85.9% and 99.9%, respectively. In addition, the inhibition at 6 µM in assay [4] is 82.1%; in assay [5] it was 98.5%; in assay [8], 44.2%.
For `O=C(c1ccc([N+](=O)[O-])cc1)C(Cl)Cl`, the inhibition at 2 µM in assay [1] was 77.8%; in assay [3], 24.5%; in assay [6] it was 35%. Also, the inhibition at 12 µM turned out to be 99.9% in assay [2], 97.6% in assay [7] and 99.4% in assay [9]. Further, the inhibition at 6 µM in assay [4] was 98.5%; in assay [5], 99.6%; in [8], 70.5%.
In the case of `O=C(c1ccc(F)c([N+](=O)[O-])c1)C(Cl)Cl`, the inhibition at 2 µM in [1] stood at 6.5%; in assay [3] it was 7%. Also, the inhibition at 12 µM in assay [2] was determined as 14.5%; in assay [7] it was 51.1%; in [9], 97.6%. Besides, the inhibition entry in assay [4] and in assay [6] was “inactive” throughout. Further, the inhibition at 6 µM in assay [5] was 73.3%; in assay [8], 20.4%.
Consider `O=C(c1ccc(Cl)cc1Cl)C(Cl)Cl`, for which the inhibition at 2 µM in assay [1] amounted to 80.2%; in assay [3], 1.8%; in [6], 35.2%. In addition, the inhibition at 12 µM in assay [2] is 99.8%; in [7], 48.4%; in [9], 99%. Besides, the inhibition at 6 µM is 89% in assay [4], 96.9% in assay [5] and 4.4% in assay [8].
For the compound `O=C(c1cccc(Br)c1)C(Cl)Cl`, the inhibition at 2 µM in [1] worked out at 44.9%; in assay [3], 15.6%; in assay [6], 18.1%. Besides, the figures for the inhibition at 12 µM in assay [2], in assay [7] and in assay [9] were 79.6%, 72% and 97.4%, respectively. Besides, the inhibition at 6 µM in assay [4] turned out to be 43.6%; in assay [5], 86.2%; in [8], 24.7%.
With `COc1cccc2c1C(=O)c1c(O)c3c(c(O)c1C2=O)C[C@@](O)(C(=O)CO)C[C@@H]3O[C@H]1C[C@H](N)[C@H](O)[C@H](C)O1` [DOXORUBICIN], the inhibition at 2 µM in assay [1] is 72.4%; in assay [3], 52.3%; in assay [6], 60.5%. Moreover, the inhibition at 12 µM stood at 99.6% in assay [2], 98.9% in assay [7] and 98.6% in [9]. Further, the results for the inhibition at 6 µM in assay [4], in [5] and in assay [8] were 86.9%, 90.6% and 86.7%, respectively.
On to `O=C(c1ccc(I)cc1)C(Cl)Cl`, for which the results for the inhibition at 2 µM in [1], in assay [3] and in [6] were 33.8%, 9.3% and 29.3%, respectively. Also, the inhibition at 12 µM was determined as 99.6% in assay [2], 74.4% in assay [7] and 96.8% in assay [9]. Further, the inhibition at 6 µM in [4] was determined as 65.6%; in assay [5], 91.4%; in assay [8], 52.3%.
Turning to `O=C(c1ccc(F)cc1F)C(Cl)Cl`, the figures for the inhibition at 2 µM in assay [1], in [3] and in assay [6] were 74.3%, 4.8% and 30.8%, respectively. Moreover, the inhibition at 12 µM in assay [2] turned out to be 95.3%; in [7] it was 58.5%; in assay [9], 98.7%. Further, the inhibition at 6 µM was 65.5% in [4], 97.5% in [5] and 50.1% in [8].
As for `CC(C)c1ccc(C(=O)C(Cl)(Cl)Cl)cc1[N+](=O)[O-]`, the inhibition result in [1], in assay [3], in assay [4], in assay [5], in assay [6] and in [8] was “inactive” in each case. Further, the inhibition at 12 µM came out at 22.6% in assay [2], 12.5% in assay [7] and 31.2% in assay [9].
Consider `CC(C)c1ccc(C(=O)CCl)cc1[N+](=O)[O-]`, for which the results for the inhibition at 2 µM in assay [1] and in [6] were 9% and 18.4%, respectively. The results for the inhibition at 12 µM in assay [2], in assay [7] and in assay [9] were 95.7%, 75.6% and 99%, respectively. Besides, in assay [3], the inhibition entry is “inactive”. In addition, the inhibition at 6 µM worked out at 59.7% in assay [4], 50.4% in assay [5] and 28.7% in assay [8].
On to `O=C(c1ccc(Br)cc1)C(Cl)Cl`, for which the inhibition at 2 µM stood at 13.3% in [1] and 23.5% in [6]. Further, the values for the inhibition at 12 µM in assay [2], in assay [7] and in assay [9] were 73.4%, 48.8% and 96.1%, respectively. The inhibition result in assay [3] was “inactive”. The inhibition at 6 µM in assay [4] is 37.8%; in assay [5], 67.7%; in assay [8], 16.2%.
Turning to `CCc1cccc(C(=O)C(Cl)Cl)c1`, the inhibition at 2 µM came to 28% in [1], 22.6% in assay [3] and 23.7% in assay [6]. For the same compound, the inhibition at 12 µM in assay [2] turned out to be 98.7%; in assay [7], 63.2%; in assay [9] it was 96.9%. The inhibition at 6 µM in [4] came to 64.1%; in assay [5], 85.9%; in assay [8], 25.7%.
Consider `O=C(c1cccc(I)c1)C(Cl)Cl`, for which the inhibition at 2 µM came out at 64% in [1], 20.4% in assay [3] and 46.1% in assay [6]. Further, the inhibition at 12 µM in assay [2] turned out to be 98.7%; in assay [7], 89.8%; in assay [9] it was 99.1%. The inhibition at 6 µM is 82% in assay [4], 97.5% in assay [5] and 67% in [8].
Turning to `O=C(c1ccc(Br)c([N+](=O)[O-])c1)C(Cl)Cl`, the inhibition at 2 µM turned out to be 9.1% in [1] and 6.5% in assay [3]. In addition, the inhibition at 12 µM in assay [2] worked out at 59.1%; in [7], 50.5%; in assay [9], 98.9%. For the same compound, the inhibition result in assay [4] and in assay [6] was “inactive” in each case. In addition, the inhibition at 6 µM in assay [5] worked out at 74.1%; in assay [8] it was 14.1%.
For the compound `N#Cc1ccc(C(=O)C(Cl)Cl)cc1`, the inhibition at 2 µM in assay [1] was 54.6%; in assay [3] it was 8.5%; in assay [6] it was 11.8%. Also, the inhibition at 12 µM is 96.5% in [2], 61.4% in [7] and 99.7% in [9]. Moreover, the inhibition at 6 µM in [4] turned out to be 65.8%; in assay [5], 99.4%; in assay [8], 15.9%.
For `Cc1cccc(C(=O)C(Cl)Cl)c1`, the inhibition at 2 µM turned out to be 42.5% in assay [1], 14.2% in [3] and 33.3% in assay [6]. In addition, the inhibition at 12 µM in [2] amounted to 96.8%; in [7] it was 91.3%; in assay [9] it was 96.7%. In addition, the inhibition at 6 µM was 79.9% in assay [4], 97.3% in assay [5] and 65.6% in assay [8].
`O=C(c1cccc(C(F)(F)F)c1)C(Cl)Cl`: the inhibition at 2 µM was 45.8% in assay [1], 11% in assay [3] and 24% in assay [6]. The inhibition at 12 µM in assay [2] amounted to 97.5%; in assay [7] it was 77.9%; in [9] it was 97.8%. The inhibition at 6 µM was determined as 65.9% in assay [4], 96.6% in assay [5] and 28.4% in [8].
Regarding `O=C(c1ccc(F)cc1)C(Cl)Cl`, the results for the inhibition at 2 µM in [1], in assay [3] and in assay [6] were 15.4%, 4.7% and 26.5%, respectively. For the same compound, the figures for the inhibition at 12 µM in [2], in assay [7] and in assay [9] were 95.5%, 48.1% and 98.3%, respectively. The inhibition at 6 µM in [4] was found to be 62.9%; in assay [5], 92.1%; in assay [8], 15.5%.
As for `O=C(c1cccc(Cl)c1)C(Cl)Cl`, the results for the inhibition at 2 µM in assay [1], in [3] and in assay [6] were 37%, 14.2% and 24.9%, respectively. In addition, the results for the inhibition at 12 µM in assay [2], in assay [7] and in assay [9] were 99.1%, 82.8% and 98.4%, respectively. For the same compound, the inhibition at 6 µM is 76.3% in assay [4], 95.9% in assay [5] and 53.1% in [8].
For the compound `O=C(c1ccc(C(F)(F)F)cc1)C(Cl)Cl`, the inhibition at 2 µM in assay [1] worked out at 47.8%; in assay [3], 18.6%; in assay [6], 25.8%. In addition, the results for the inhibition at 12 µM in assay [2], in assay [7] and in [9] were 75.5%, 85.9% and 98.2%, respectively. Besides, the inhibition at 6 µM in assay [4] was found to be 49.7%; in assay [5], 91.6%; in [8] it was 37.1%.
